Read-outs that look alike come from different tables or passages of the source.
Tests used:
[1] = system: Lizard (Anolis carolinensis) Skin; details: relative to alpha-MSH = 1.0; earlier studies; cited from earlier work
Frog (Rana pipiens) Skin = details: relative to alpha-MSH = 1.0; earlier studies; cited from earlier work
[2] = system: Lizard (Anolis carolinensis) Skin; assay type: cell-based; details: for Biological Potency Lizard: relative to alpha-MSH = 1.0
Text: Based upon the structural relationship of alpha-MSH (and its analogues and fragments) to its biological potency, using in vitro a frog skin bioassay system, the active site of alpha-MSH appears to be the common active core sequence suitably modified Ac-Met-Glu-His-Phe-Arg-Trp-Gly-NH₂. This fragment (Alpha-MSH₄₋₁₀) has been synthesized and tested for its melanocyte stimulating activity in frog skin and shown to be a weak agonist when compared to the native hormone. The amino acid exchanges in position 5(Glu) and 10(Gly) have not, previous to the making of the present invention, been investigated. […] The following table summarizes some of these studies.
The biological potencies of alpha-MSH, the linear, and the cyclic analogues were determined by their ability to stimulate melanosome dispersion in vitro in the frog and lizard bioassays. These in vitro assays provide clear cut dose response curves (between 2.5 x 10⁻¹¹ and 4 x 10⁻¹⁰ M) and can detect minimal concentration of alpha-MSH of about 10⁻¹¹ M. The assays are based upon the centrifugal dispersion of melanosomes (melanin granules) within the dendritic processes of integumental dermal melanophores leading to darkening of the skin. All the test solutions were prepared via serial dilutions from a stock solution (10⁻⁴ M). The frogs (Rans pipiens) used in these evaluations were obtained from Kons Scientific, Germantown, WI, and the lizards (Anolis carolinensis) were from the Snake Farm, La Place, LA.

| Substance | Relative Potency Lizard [1] | Relative Potency Frog (Frog (Rana pipiens) Skin) | Residual Activity Lizard ([2]; cyclic analogues, p = prolonged action) | Biological Potency Lizard ([2]; cyclic analogues) | Residual Activity Lizard ([2]; linear analogues, P = prolonged action) | Biological Potency Lizard ([2]; linear analogues) |
| --- | --- | --- | --- | --- | --- | --- |
| Ac-[Nle⁴]-alpha-MSH₄₋₁₁NH₂ | 1.0 | 0.002 | – | – | – | – |
| alpha-melanotropin [alpha-MSH] | 1.0 | 1.0 | p(-) | 1.0 | P(-) | 1.0 |
